Our source for the inhibition values is article PMC6539592, “Functional Analysis of Peptidyl-prolyl cis-trans Isomerase from Aspergillus flavus” (International Journal of Molecular Sciences, 2019).

For the assay, the target named is T1, ppci1 (Aspergillus flavus, UniProt B8NRT5).
T1 construct: E. coli BL21(DE3), modified pRSFDuet-1; N-terminal 6xHis tag removed with PreScission protease
Put plainly: chymotrypsin-coupled PPIase assay, absorbance at […] nm. As to conditions: 15 °C, HEPES pH 8.0; substrate succinyl-AAPF-p-nitroanilide; figure labels traces FK506-CsA and FK506-Rap, possibly combined. In kind it is biochemical.

T1 sequence (B8NRT5 1-122): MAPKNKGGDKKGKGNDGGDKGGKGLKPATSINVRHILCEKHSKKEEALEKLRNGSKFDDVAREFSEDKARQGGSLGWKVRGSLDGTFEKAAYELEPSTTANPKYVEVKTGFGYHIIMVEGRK

For the compound `C=CC[C@@H]1/C=C(\C)C[C@H](C)C[C@H](OC)[C@H]2O[C@@](O)(C(=O)C(=O)N3CCCC[C@H]3C(=O)O[C@H](/C(C)=C/[C@@H]3CC[C@@H](O)[C@H](OC)C3)[C@H](C)[C@@H](O)CC1=O)[C@H](C)C[C@@H]2OC` [FK506, Tacrolimus], the inhibition result is on record as “activity of ppci1 was inhibited by these aforementioned drugs with constantly decreased absorption”.
To `CO[C@H]1C[C@@H]2CC[C@@H](C)[C@@](O)(O2)C(=O)C(=O)N2CCCC[C@H]2C(=O)O[C@H]([C@H](C)C[C@@H]2CC[C@@H](O)[C@H](OC)C2)CC(=O)[C@H](C)/C=C(\C)[C@@H](O)[C@@H](OC)C(=O)[C@H](C)C[C@H](C)/C=C/C=C/C=C/1C` [Rap, Rapamycin] belongs “We found that FK506, CsA and Rapamycin inhibit the protein activity of ppci1”.
